Assay results taken from US10670605B2, “Cysteine reactive probes and uses thereof” (The Scripps Research Institute, priority 2015, dated 2020).

Experiments:
Assay in all cases: Competitive isoTOP-ABPP in situ (fragment-treated cells)
Type in all cases: cell-based
[1] = target: T1, cysteines in MDA-MB-231 and Ramos cells (Homo sapiens, UniProt P57764)
T1 sequence (P57764 1-484): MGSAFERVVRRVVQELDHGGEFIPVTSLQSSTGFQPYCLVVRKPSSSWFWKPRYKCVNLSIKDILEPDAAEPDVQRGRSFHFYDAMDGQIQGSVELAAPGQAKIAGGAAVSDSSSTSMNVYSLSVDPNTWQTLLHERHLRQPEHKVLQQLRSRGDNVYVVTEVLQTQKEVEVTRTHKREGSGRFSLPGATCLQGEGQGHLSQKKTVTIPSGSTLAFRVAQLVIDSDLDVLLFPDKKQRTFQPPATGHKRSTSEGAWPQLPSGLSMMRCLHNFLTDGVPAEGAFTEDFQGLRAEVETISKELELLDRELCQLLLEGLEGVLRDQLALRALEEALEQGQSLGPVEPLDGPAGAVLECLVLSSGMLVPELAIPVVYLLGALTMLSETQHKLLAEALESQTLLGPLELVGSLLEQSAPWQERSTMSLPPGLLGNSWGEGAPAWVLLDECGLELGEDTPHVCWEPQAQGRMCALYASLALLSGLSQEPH

[2] = target: T2, cysteines in MDA-MB-231 and Ramos cells (Homo sapiens, UniProt Q9UMS0); conditions: 200 μM, insitu, 231
T2 sequence (Q9UMS0 10-254): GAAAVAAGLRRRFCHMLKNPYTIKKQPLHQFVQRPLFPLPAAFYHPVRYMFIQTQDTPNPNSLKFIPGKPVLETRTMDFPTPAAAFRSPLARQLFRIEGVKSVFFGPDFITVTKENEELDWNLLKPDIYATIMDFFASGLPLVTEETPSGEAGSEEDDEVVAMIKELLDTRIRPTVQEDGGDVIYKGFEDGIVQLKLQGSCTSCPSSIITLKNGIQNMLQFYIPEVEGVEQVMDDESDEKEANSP

[3] = target: T3, cysteines in MDA-MB-231 and Ramos cells (Homo sapiens, UniProt P24752)
T3 sequence (P24752 34-427): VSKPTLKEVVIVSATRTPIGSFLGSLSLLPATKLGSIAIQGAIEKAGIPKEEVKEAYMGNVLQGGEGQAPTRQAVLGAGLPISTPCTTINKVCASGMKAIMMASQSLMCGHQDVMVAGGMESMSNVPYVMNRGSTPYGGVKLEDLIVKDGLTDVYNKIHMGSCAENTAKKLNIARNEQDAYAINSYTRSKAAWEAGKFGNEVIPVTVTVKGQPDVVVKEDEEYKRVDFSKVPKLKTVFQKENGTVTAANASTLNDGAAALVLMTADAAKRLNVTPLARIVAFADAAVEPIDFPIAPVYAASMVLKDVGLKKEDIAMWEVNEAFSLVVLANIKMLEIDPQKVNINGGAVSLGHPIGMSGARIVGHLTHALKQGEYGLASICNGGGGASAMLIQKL

[4] = target: T4, cysteines in MDA-MB-231 and Ramos cells (Homo sapiens, UniProt Q9BRA2)
T4 sequence (Q9BRA2 1-123): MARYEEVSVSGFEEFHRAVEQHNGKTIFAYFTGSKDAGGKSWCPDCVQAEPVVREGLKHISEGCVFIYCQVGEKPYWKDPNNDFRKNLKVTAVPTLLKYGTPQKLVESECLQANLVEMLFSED

[5] = target: T5, cysteines in MDA-MB-231 and Ramos cells (Homo sapiens, UniProt Q13162)
T5 sequence (Q13162 38-271): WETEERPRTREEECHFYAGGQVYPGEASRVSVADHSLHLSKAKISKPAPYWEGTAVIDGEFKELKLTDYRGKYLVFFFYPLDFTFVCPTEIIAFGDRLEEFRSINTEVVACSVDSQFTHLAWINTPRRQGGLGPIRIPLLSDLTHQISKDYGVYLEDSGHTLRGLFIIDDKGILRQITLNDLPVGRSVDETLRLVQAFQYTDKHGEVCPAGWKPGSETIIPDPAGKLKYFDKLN

[6] = target: T6, cysteines in MDA-MB-231 and Ramos cells (Homo sapiens, UniProt Q15084)
T6 sequence (Q15084 20-440): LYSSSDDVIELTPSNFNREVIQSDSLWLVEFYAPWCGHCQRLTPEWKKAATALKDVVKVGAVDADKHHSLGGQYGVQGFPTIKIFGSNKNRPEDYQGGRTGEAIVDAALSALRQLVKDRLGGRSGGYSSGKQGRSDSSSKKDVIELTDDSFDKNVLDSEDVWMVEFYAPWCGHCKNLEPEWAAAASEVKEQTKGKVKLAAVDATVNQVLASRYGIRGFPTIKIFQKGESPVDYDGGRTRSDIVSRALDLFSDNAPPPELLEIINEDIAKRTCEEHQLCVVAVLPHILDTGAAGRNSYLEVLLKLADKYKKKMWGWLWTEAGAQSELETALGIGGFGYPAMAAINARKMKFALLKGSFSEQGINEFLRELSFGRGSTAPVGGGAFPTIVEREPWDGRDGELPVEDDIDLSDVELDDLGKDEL

[7] = target: T7, cysteines in MDA-MB-231 and Ramos cells (Homo sapiens, UniProt P22307)
T7 sequence (P22307 1-547): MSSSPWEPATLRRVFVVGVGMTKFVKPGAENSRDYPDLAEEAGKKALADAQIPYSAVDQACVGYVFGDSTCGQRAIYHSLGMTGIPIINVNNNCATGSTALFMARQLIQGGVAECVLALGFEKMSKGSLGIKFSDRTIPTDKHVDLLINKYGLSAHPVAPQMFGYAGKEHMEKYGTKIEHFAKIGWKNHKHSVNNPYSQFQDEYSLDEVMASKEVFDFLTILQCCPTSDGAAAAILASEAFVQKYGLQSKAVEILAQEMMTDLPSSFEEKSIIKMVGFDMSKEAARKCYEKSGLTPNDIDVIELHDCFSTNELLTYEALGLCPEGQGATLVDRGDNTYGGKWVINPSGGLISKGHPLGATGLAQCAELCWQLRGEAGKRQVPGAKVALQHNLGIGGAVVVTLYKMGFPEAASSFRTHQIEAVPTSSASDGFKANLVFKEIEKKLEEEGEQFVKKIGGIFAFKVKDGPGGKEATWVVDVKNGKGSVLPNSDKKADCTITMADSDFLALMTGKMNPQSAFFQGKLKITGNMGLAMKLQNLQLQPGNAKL

| isoTOP-ABPP ratio Q9UMS0_C213 [2] | isoTOP-ABPP ratio P24752_C119 ([3]; 200 μM, insitu, 231) | isoTOP-ABPP ratio P24752_C413 ([3]; 200 μM, insitu, 231) | isoTOP-ABPP ratio, P24752_C126 ([3]; 200 μM, insitu, 231) | isoTOP-ABPP ratio, P24752_C196 ([3]; 200 μM, insitu, 231) | isoTOP-ABPP ratio Q9BRA2_C43 ([4]; 200 μM, insitu, 231) | isoTOP-ABPP ratio Q13162_C51 ([5]; 200 μM, insitu, 231) | isoTOP-ABPP ratio Q15084_C55 ([6]; 200 μM, insitu, 231) | isoTOP-ABPP ratio, Q15084_C190 ([6]; 200 μM, insitu, 231) | isoTOP-ABPP ratio P22307_C71 ([7]; 200 μM, insitu, 231) | isoTOP-ABPP ratio, cysteine P22307_C307 ([7]; 200 μM, insitu, 231) | isoTOP-ABPP ratio P57764_C268 ([1]; 200 μM, insitu, 231) | Structure (SMILES) | other results |
| --- | --- | --- | --- | --- | --- | --- | --- | --- | --- | --- | --- | --- | --- |
| 0.9 | 1.9 | 0.9 | 0.8 | 0.9 | 0.6 | – | 0.9 | 0.9 | 1.2 | – | 0.6 | Cc1ccc(C=C(C#N)C(=O)NCCN2CCOCC2)cc1 [compound 41] | isoTOP-ABPP ratio P22307_C307 ([7]; 200 μM, insitu, 231): 1.1 |
| – | 1.0 | 1.0 | 1.2 | – | – | – | 1.4 | – | – | – | – | COc1ccccc1OCCNC(=O)CCl [compound 28] | isoTOP-ABPP ratio P22307_C94 ([7]; 200 μM, insitu, 231): 20.0 |

More lines, now with the values behind:

| Structure (SMILES) | isoTOP-ABPP ratio Q9UMS0_C213 [2] | isoTOP-ABPP ratio P24752_C119 ([3]; 200 μM, insitu, 231) | isoTOP-ABPP ratio P24752_C413 ([3]; 200 μM, insitu, 231) | isoTOP-ABPP ratio, P24752_C126 ([3]; 200 μM, insitu, 231) | isoTOP-ABPP ratio, P24752_C196 ([3]; 200 μM, insitu, 231) | isoTOP-ABPP ratio Q9BRA2_C43 ([4]; 200 μM, insitu, 231) | isoTOP-ABPP ratio Q13162_C51 ([5]; 200 μM, insitu, 231) | isoTOP-ABPP ratio Q15084_C55 ([6]; 200 μM, insitu, 231) | isoTOP-ABPP ratio, Q15084_C190 ([6]; 200 μM, insitu, 231) | isoTOP-ABPP ratio P22307_C71 ([7]; 200 μM, insitu, 231) | isoTOP-ABPP ratio, cysteine P22307_C307 ([7]; 200 μM, insitu, 231) | isoTOP-ABPP ratio P57764_C268 ([1]; 200 μM, insitu, 231) | other results |
| --- | --- | --- | --- | --- | --- | --- | --- | --- | --- | --- | --- | --- | --- |
| COc1ccc2c(c1)CCCN2C(=O)CCl [compound 2] | – | – | – | – | – | – | – | – | – | – | – | – | isoTOP-ABPP reactivity P57764_C268 GSDMD ([1]; 200 μM, insitu, 231): 20.0; isoTOP-ABPP reactivity Q9UMS0_C213 NFU1 [2]: 7.4; isoTOP-ABPP reactivity P24752_C119 ACAT1 ([3]; 200 μM, insitu, 231): 2.6; isoTOP-ABPP reactivity P24752_C126 ACAT1 ([3]; 200 μM, insitu, 231): 9.1; isoTOP-ABPP reactivity P24752_C196 ACAT1 ([3]; 200 μM, insitu, 231): 20.0; isoTOP-ABPP reactivity P24752_C413 ACAT1 ([3]; 200 μM, insitu, 231): 20.0; isoTOP-ABPP reactivity Q9BRA2_C43 TXNDC17 ([4]; 200 μM, insitu, 231): 15.5; isoTOP-ABPP reactivity Q13162_C51 PRDX4 ([5]; 200 μM, insitu, 231): 4.6; isoTOP-ABPP reactivity Q15084_C55 PDIA6 ([6]; 200 μM, insitu, 231): 3.0; isoTOP-ABPP reactivity P22307_C71 SCP2 ([7]; 200 μM, insitu, 231): 3.2; isoTOP-ABPP reactivity P22307_C307 SCP2 ([7]; 200 μM, insitu, 231): 20.0 |
| O=C(CCl)NC(=O)NC12CC3CC(CC(C3)C1)C2 [compound 12] | 20.0 | 4.1 | 9.9 | 5.8 | 4.6 | 20.0 | 1.0 | 15.4 | 20.0 | 3.7 | 20.0 | – | isoTOP-ABPP ratio, cysteine P22307_C94 ([7]; 200 μM, insitu, 231): 20.0 |
| O=C(CCl)NC12CC3CC(CC(C3)C1)C2 [compound 21] | – | 1.6 | 1.5 | 1.4 | 1.5 | 16.0 | 1.7 | 0.9 | – | 8.3 | 20.0 | 0.7 | – |
| Cn1cc(S(=O)(=O)N2CCOCC2)cc1C(=O)NC(=O)CCl [compound 11] | – | – | – | – | – | – | – | – | – | – | – | – | isoTOP-ABPP ratio P57764_C268 ([1]; 100 μM in situ 231): 0.7; isoTOP-ABPP ratio P24752_C119 ([3]; 100 μM in situ 231): 1.2; isoTOP-ABPP ratio P24752_C413 ([3]; 100 μM in situ 231): 1.2; isoTOP-ABPP ratio, P24752_C126 ([3]; 100 μM in situ 231): 1.2; isoTOP-ABPP ratio, P24752_C196 ([3]; 100 μM in situ 231): 1.1; isoTOP-ABPP ratio Q9BRA2_C43 ([4]; 100 μM in situ 231): 17.7; isoTOP-ABPP ratio Q13162_C51 ([5]; 100 μM in situ 231): 0.9; isoTOP-ABPP ratio Q15084_C55 ([6]; 100 μM in situ 231): 4.3; isoTOP-ABPP ratio P22307_C71 ([7]; 100 μM in situ 231): 2.0; isoTOP-ABPP ratio, cysteine P22307_C94 ([7]; 100 μM in situ 231): 3.3; isoTOP-ABPP ratio, cysteine P22307_C307 ([7]; 100 μM in situ 231): 2.9 |
